According to PMC10031046, “Competition between FLS and DFR regulates the distribution of flavonols and proanthocyanidins in Rubus chingii Hu” (Frontiers in Plant Science, 2023):

Columns and labels:
RcFLS1 = tested on: T1, RcFLS1; assay: HPLC product assay, Michaelis-Menten fit; format: biochemical, Rubus chingii; settings: 100 mM Tris-HCl pH 7.5, 10 mM ascorbate, 10 μM FeSO4, 10 mM 2-oxoglutarate, catalase, 30 °C; kcat unit is 10^-3 s^-1
T1 construct: gene FLS1; N-terminal MBP fusion (pMAL-c2X), E. coli BL21(DE3), amylose resin
Source text: HPLC product assay, Michaelis-Menten fit on RcFLS1

RcDFR = tested on: T2, RcDFR; assay: anthocyanidin formation after butanol-HCl, A530, Michaelis-Menten fit; format: biochemical, Rubus chingii; settings: 1 mM NADPH, 0.1 M PBS pH 7.0, 30 °C, 1 h; kcat unit is 10^-3 s^-1
T2 construct: gene DFR; N-terminal MBP fusion (pMAL-c2X), E. coli BL21(DE3), amylose resin
Source text: anthocyanidin formation after butanol-HCl, A530, Michaelis-Menten fit on RcDFR

Km (RcFLS1)	Km (RcDFR)	Compound
34.5 ± 9.34 µM	–	O=C1C[C@@H](c2ccc(O)c(O)c2)Oc2cc(O)cc(O)c21 [E, Eriodictyol]
56.9 ± 16.4 µM	125 ± 11.4 µM	O=C1c2c(O)cc(O)cc2O[C@H](c2ccc(O)c(O)c2)[C@H]1O [DHQ, Dihydroquercetin]
33.9 ± 8.66 µM	47.2 ± 5.79 µM	O=C1c2c(O)cc(O)cc2O[C@H](c2ccc(O)cc2)[C@H]1O [DHK, Dihydrokaempferol]
43.6 ± 14.6 µM	–	O=C1C[C@@H](c2ccc(O)cc2)Oc2cc(O)cc(O)c21 [N, Naringenin]
